Data published in patent US20130029962A1, “Substituted Heteroaromatic Pyrazole-Containing Carboxamide and Urea Compounds as Vanilloid Receptor Ligands” (Gruenenthal GmbH, priority 2011, published 2013).

Molecular target: T1, vanilloid receptor 1 (VR1/TRPV1 receptor) (Homo sapiens, UniProt Q8NER1)
T1 construct: expressed in transfected cells; host or cells: CHO K1
Experiment: Functional testing on the vanilloid receptor 1 (VR1/TRPV1): FLIPR Ca2+ influx assay, displacement of capsaicin
Assay type: cell-based, human being
Set-up: key to mode of action at VR1/TRPV1 (AG, pAG, NE), Cap: AG=agonist; NE=no effect; pAG=partial agonist
Conditions: 5 μM compound; capsaicin (Cap); human being; read-out: inhibition (as a percentage) at the concentration after @, Cap
Protocol: Furthermore, preference may be given to compounds according to the invention that cause a 50 percent displacement of capsaicin, which is present at a concentration of 100 nM, in a FLIPR assay with CHO K1 cells which were transfected with the human VR1 gene at a concentration of less than 2,000 nM, preferably less than 1,000 nM, particularly preferably less than 300 nM, most particularly preferably less than 100 nM, even more preferably less than 75 nM, additionally preferably less than 50 nM, most preferably less than 10 nM.
In the process, the Ca^2+ influx is quantified in the FLIPR assay with the aid of a Ca^2+-sensitive dye (type Fluo-4, Molecular Probes Europe BV, Leiden, the Netherlands) in a fluorescent imaging plate reader (FLIPR, Molecular Devices, Sunnyvale, USA), as described hereinafter. […]
The number of cells in the suspension is set to 3×10^5 per mL and 150 μL of this suspension are in each case introduced into a recess in the cell culture plates coated as described hereinbefore. In the incubator the plates are left for two to three days at 37° C., 5% by volume of CO2 and 95% relative humidity. Subsequently, the cells are loaded with 2 μM of Fluo-4 and 0.01% by volume of Pluronic F127 (Molecular Probes Europe BV, Leiden, the Netherlands) in HBSS buffer (Hank's buffered saline solution, Gibco Invitrogen GmbH, Karlsruhe, Germany) for 30 min at 37° C., washed 3 times with HBSS buffer and after further incubation for 15 minutes at room temperature used for Ca^2+ measurement in a FLIPR assay. The Ca^2+-dependent fluorescence is in this case measured before and after the addition of substances (λex=488 nm, λem=540 nm). Quantification is carried out by measuring the highest fluorescence intensity (FC, fluorescence counts) over time.
The FLIPR protocol consists of 2 substance additions. First the compounds to be tested (10 μM) are pipetted onto the cells and the Ca^2+ influx is compared with the control (capsaicin 10 μM). This provides the result in % activation based on the Ca^2+ signal after the addition of 10 μM of capsaicin (CP). After 5 minutes' incubation, 100 nM of capsaicin are applied and the Ca^2+ influx is also determined. Desensitising agonists and antagonists lead to suppression of the Ca^2+ influx. The % inhibition is calculated compared to the maximum achievable inhibition with 10 μM of capsazepine. Triple analyses (n=3) are carried out and repeated in at least 3 independent experiments (N=4).
Starting from the percentage displacement caused by different concentrations of the compounds to be tested of general formula I, IC50 inhibitory concentrations which cause a 50-percent displacement of capsaicin were calculated. Ki values for the test substances were obtained by conversion by means of the Cheng-Prusoff equation (Cheng, Prusoff; Biochem. Pharmacol. 22, 3099-3108, 1973).
The affinity of the compounds according to the invention for the vanilloid receptor 1 (VR1/TRPV1 receptor) was determined as described above (pharmacological method I).

T1 sequence (Q8NER1 whole entry): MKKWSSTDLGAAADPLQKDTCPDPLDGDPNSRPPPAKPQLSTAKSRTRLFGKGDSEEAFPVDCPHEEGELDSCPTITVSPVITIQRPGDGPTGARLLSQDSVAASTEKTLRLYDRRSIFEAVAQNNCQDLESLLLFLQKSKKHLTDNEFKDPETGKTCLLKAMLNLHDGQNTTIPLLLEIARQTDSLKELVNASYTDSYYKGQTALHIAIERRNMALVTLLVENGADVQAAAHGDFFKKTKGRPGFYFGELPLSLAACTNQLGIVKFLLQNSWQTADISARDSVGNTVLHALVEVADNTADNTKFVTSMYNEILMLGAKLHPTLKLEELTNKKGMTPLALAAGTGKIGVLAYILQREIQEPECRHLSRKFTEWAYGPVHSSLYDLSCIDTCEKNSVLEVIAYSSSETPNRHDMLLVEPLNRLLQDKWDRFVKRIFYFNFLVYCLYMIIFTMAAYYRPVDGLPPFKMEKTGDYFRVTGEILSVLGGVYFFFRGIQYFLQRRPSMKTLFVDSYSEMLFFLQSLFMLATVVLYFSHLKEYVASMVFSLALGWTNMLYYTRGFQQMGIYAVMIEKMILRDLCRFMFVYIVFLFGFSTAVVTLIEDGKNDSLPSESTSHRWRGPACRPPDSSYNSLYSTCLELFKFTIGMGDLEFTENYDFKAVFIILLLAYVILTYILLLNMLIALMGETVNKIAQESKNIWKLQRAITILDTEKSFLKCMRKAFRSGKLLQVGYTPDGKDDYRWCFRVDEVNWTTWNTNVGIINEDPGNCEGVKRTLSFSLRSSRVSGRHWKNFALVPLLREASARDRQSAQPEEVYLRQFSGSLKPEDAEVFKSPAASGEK

Row | Structure (SMILES) | inhibition at 5 µM
1 | NC(=O)c1ccc(NC(=O)NCc2cc(C(F)(F)F)nn2-c2cccc(Cl)c2)cn1 [Example 26, 5-(3-((1-(3-chlorophenyl)-3-(trifluoromethyl)-1H-pyrazol-5-yl)methyl)ureido)picolinamide] | 44%
2 | CC(C(=O)NCc1cc(C(C)(C)C)nn1-c1cccc(Cl)c1)c1ccccn1 (centres unmarked) [Example 2, N-((3-tert-butyl-1-(3-chlorophenyl)-1H-pyrazol-5-yl)methyl)-2-(pyridin-2-yl)propanamide] | 89%
3 | O=C(Cc1ccncc1)NCc1cc(C(F)(F)F)nn1-c1cccc(Cl)c1 [Example 11, N-((1-(3-chlorophenyl)-3-(trifluoromethyl)-1H-pyrazol-5-yl)methyl)-2-(pyridin-4-yl)acetamide] | 79%
4 | O=C(NCc1cc(C(F)(F)F)nn1-c1cccc(F)c1)Nc1ccc(CO)nc1 [Example 33, 1-((1-(3-fluorophenyl)-3-(trifluoromethyl)-1H-pyrazol-5-yl)methyl)-3-(6-(hydroxymethyl)pyridin-3-yl)urea] | 41%
5 | O=C(Cc1cccnc1)NCc1cc(C(F)(F)F)nn1-c1cccc(Cl)c1 [Example 7, N-((1-(3-chlorophenyl)-3-(trifluoromethyl)-1H-pyrazol-5-yl)methyl)-2-(pyridin-3-yl)acetamide] | 51%
6 | O=C(Cc1ccccn1)NCc1cc(C(F)(F)F)nn1-c1cccc(Cl)c1 [Example 1, N-((1-(3-chlorophenyl)-3-(trifluoromethyl)-1H-pyrazol-5-yl)methyl)-2-(pyridin-2-yl)acetamide] | 31%
7 | CC(C(=O)NCc1cc(C(F)(F)F)nn1-c1cccc(Cl)c1)c1cnc(C(=O)Nc2ccccc2)nc1 (centres unmarked) [Example 62, 5-(1-((1-(3-chlorophenyl)-3-(trifluoromethyl)-1H-pyrazol-5-yl)methylamino)-1-oxopropan-2-yl)-N-phenylpyrimidine-2-carboxamide] | 53%

Second part, the compound after the results:

Row | inhibition at 5 µM | Structure (SMILES)
8 | 83% | COCCOc1ccc(NC(=O)NCc2cc(C(C)(C)C)nn2-c2cccc(Cl)c2)cn1 [Example 131, 1-((3-tert-butyl-1-(3-chlorophenyl)-1H-pyrazol-5-yl)methyl)-3-(6-(2-methoxyethoxy)pyridin-3-yl)urea]
9 | 30% | CS(=O)(=O)Nc1ccc(NC(=O)NCc2cc(C(F)(F)F)nn2-c2cccc(Cl)c2)cn1 [Example 101, N-(5-(3-((1-(3-chlorophenyl)-3-(trifluoromethyl)-1H-pyrazol-5-yl)methyl)ureido)pyridin-2-yl)methanesulfonamide]
10 | 22% | CN(CCO)Cc1ccc(NC(=O)NCc2cc(C(F)(F)F)nn2-c2cccc(Cl)c2)cn1 [Example 135, 1-((1-(3-chlorophenyl)-3-(trifluoromethyl)-1H-pyrazol-5-yl)methyl)-3-(6-(((2-hydroxyethyl)(methyl)amino)methyl)pyridin-3-yl)urea]

Same assay, conditions: capsaicin (Cap) as stimulus; Ki from IC50 by Cheng-Prusoff; read-out: (f) Ki (human being) [nM] Cap

Row | Structure (SMILES) | Ki
11 | CC(C(=O)NCc1cc(C(F)(F)F)nn1-c1cccc(Cl)c1)c1ccc(C(=O)Nc2ccc(F)cc2)nc1 (centres unmarked) [Example 58, 5-(1-((1-(3-chlorophenyl)-3-(trifluoromethyl)-1H-pyrazol-5-yl)methylamino)-1-oxopropan-2-yl)-N-(4-fluorophenyl)picolinamide] | 5 nM
12 | O=C(NCc1cc(C(F)(F)F)nn1-c1cccc(Cl)c1)Nc1cncc(F)c1 [Example 18, 1-((1-(3-chlorophenyl)-3-(trifluoromethyl)-1H-pyrazol-5-yl)methyl)-3-(5-fluoropyridin-3-yl)urea] | 39 nM
13 | O=C(Cc1ccc(Cl)nc1)NCc1cc(C(F)(F)F)nn1-c1cccc(Cl)c1 [Example 17, N-((1-(3-chlorophenyl)-3-(trifluoromethyl)-1H-pyrazol-5-yl)methyl)-2-(6-chloropyridin-3-yl)acetamide] | 29 nM
14 | CC(C(=O)NCc1cc(C(C)(C)C)nn1-c1cccc(Cl)c1)c1cnc(C(=O)Nc2ccc(C(F)(F)F)cc2)nc1 (centres unmarked) [Example 67, 5-(1-((3-tert-butyl-1-(3-chlorophenyl)-1H-pyrazol-5-yl)methylamino)-1-oxopropan-2-yl)-N-(4-(trifluoromethyl)phenyl)pyrimidine-2-carboxamide] | 13 nM
15 | CC(C)(C)c1cc(CNC(=O)Nc2ccc(NCCO)nc2)n(-c2cccc(Cl)c2)n1 [Example 70, 1-((3-tert-butyl-1-(3-chlorophenyl)-1H-pyrazol-5-yl)methyl)-3-(6-(2-hydroxyethylamino)pyridin-3-yl)urea] | 3 nM
16 | CS(=O)(=O)CCc1ncc(NC(=O)NCc2cc(C(F)(F)F)nn2-c2cccc(Cl)c2)cc1F [Example 23, 1-((1-(3-chlorophenyl)-3-(trifluoromethyl)-1H-pyrazol-5-yl)methyl)-3-(5-fluoro-6-(2-(methylsulfonyl)ethyl)pyridin-3-yl)urea] | 29 nM
17 | CC(C(=O)NCc1cc(C(F)(F)F)nn1-c1cccc(Cl)c1)c1ccc(C(N)=O)nc1 (centres unmarked) [Example 55, 5-(1-((1-(3-chlorophenyl)-3-(trifluoromethyl)-1H-pyrazol-5-yl)methylamino)-1-oxopropan-2-yl)picolinamide] | 23 nM

Other lines, results leading:

Row | Ki | Structure (SMILES)
18 | 13 nM | COc1ccc(C(C)C(=O)NCc2cc(C(F)(F)F)nn2-c2cccc(Cl)c2)cn1 (centres unmarked) [Example 129, N-((1-(3-chlorophenyl)-3-(trifluoromethyl)-1H-pyrazol-5-yl)methyl)-2-(6-methoxypyridin-3-yl)propanamide]
19 | 61 nM | CC(C)(C)c1cc(CNC(=O)Nc2ccc(N3CC[C@H](O)C3)nc2)n(-c2cccc(Cl)c2)n1 [Example 127, (S)-1-((3-tert-butyl-1-(3-chlorophenyl)-1H-pyrazol-5-yl)methyl)-3-(6-(3-hydroxypyrrolidin-1-yl)pyridin-3-yl)urea]
20 | 12 nM | CC(C(=O)NCc1cc(C(F)(F)F)nn1-c1cccc(Cl)c1)c1cnc(NS(C)(=O)=O)c(F)c1 (centres unmarked) [Example 103, N-((1-(3-chlorophenyl)-3-(trifluoromethyl)-1H-pyrazol-5-yl)methyl)-2-(5-fluoro-6-(methylsulfonamido)pyridin-3-yl)propanamide]
21 | 2 nM | CC(C(=O)NCc1cc(C(C)(C)C)nn1-c1cccc(Cl)c1)c1ccc(NC(=O)c2ccc(F)cc2)nc1 (centres unmarked) [Example 93, N-(5-(1-((3-tert-butyl-1-(3-chlorophenyl)-1H-pyrazol-5-yl)methylamino)-1-oxopropan-2-yl)pyridin-2-yl)-4-fluorobenzamide]
22 | 2 nM | CC(C(=O)NCc1cc(C(C)(C)C)nn1-c1cccc(Cl)c1)c1ccc(NC(=O)c2ccc(Cl)cc2)nc1 (centres unmarked) [Example 95, N-(5-(1-((3-tert-butyl-1-(3-chlorophenyl)-1H-pyrazol-5-yl)methylamino)-1-oxopropan-2-yl)pyridin-2-yl)-4-chlorobenzamide]
23 | 24 nM | CC(C)(C)c1cc(CNC(=O)Nc2ccc(C(O)CO)nc2)n(-c2cccc(Cl)c2)n1 (centres unmarked) [Example 144, 1-((3-tert-butyl-1-(3-chlorophenyl)-1H-pyrazol-5-yl)methyl)-3-(6-(1,2-dihydroxyethyl)pyridin-3-yl)urea]
24 | 112 nM | COc1ccc(-n2nc(C(F)(F)F)cc2CNC(=O)Nc2ccc(NCCO)nc2)cc1C [Example 157, 1-(6-(2-hydroxyethylamino)pyridin-3-yl)-3-((1-(4-methoxy-3-methylphenyl)-3-(trifluoromethyl)-1H-pyrazol-5-yl)methyl)urea]

Same assay, conditions: capsaicin (Cap); human being

Row | mode of action at VR1/TRPV1 (AG, pAG, NE), Cap | Structure (SMILES)
25 | AG | O=C(NCc1cc(C(F)(F)F)nn1-c1cccc(Cl)c1)Nc1ccnnc1 [Example 15, 1-((1-(3-chlorophenyl)-3-(trifluoromethyl)-1H-pyrazol-5-yl)methyl)-3-(pyridazin-4-yl)urea]
26 | AG | CC(C(=O)NCc1cc(C(C)(C)C)nn1-c1cccc(Cl)c1)c1ccccn1 (centres unmarked) [Example 2, N-((3-tert-butyl-1-(3-chlorophenyl)-1H-pyrazol-5-yl)methyl)-2-(pyridin-2-yl)propanamide]
27 | AG | COCCOc1ccc(NC(=O)NCc2cc(C(C)(C)C)nn2-c2cccc(Cl)c2)cn1 [Example 131, 1-((3-tert-butyl-1-(3-chlorophenyl)-1H-pyrazol-5-yl)methyl)-3-(6-(2-methoxyethoxy)pyridin-3-yl)urea]
28 | AG | O=C(Cc1ccncc1)NCc1cc(C(F)(F)F)nn1-c1cccc(Cl)c1 [Example 11, N-((1-(3-chlorophenyl)-3-(trifluoromethyl)-1H-pyrazol-5-yl)methyl)-2-(pyridin-4-yl)acetamide]
29 | NE | COc1ccc(-n2nc(C(F)(F)F)cc2CNC(=O)Nc2ccc(CO)nc2)cc1F [Example 35, 1-((1-(3-fluoro-4-methoxyphenyl)-3-(trifluoromethyl)-1H-pyrazol-5-yl)methyl)-3-(6-(hydroxymethyl)pyridin-3-yl)urea]
